The record followed here is patent publication EP4775574A1, “FURAN RING-CONTAINING COMPOUND, PHARMACEUTICAL COMPOSITION THEREOF, AND USE THEREOF” (Wuhan Xirui Pharmaceutical Technology Co., Ltd, priority 2023, dated 2025).

This data set is described as follows: Pharmacokinetic determination in KM mice. It is filed as in vivo. The procedure: Using KM mice as test animals, the pharmacokinetic behavior of the compounds in the examples in mouse plasma after administration by gavage at a dose of 10 mg/kg or by intravenous injection at a dose of 1 mg/kg was studied.
Male SPF-grade KM mice, with body weight (20 ± 2) g.
Drug preparation for the intragastric administration group: The drug concentration was prepared as 1 mg/mL, and the preparation solvent was Tween80 + 0.5% MC (v/v 1:99).
Drug preparation for the intravenous administration group: The drug concentration was prepared as 0.2 mg/mL, and the preparation solvent was 5% DMA + 5% Solutol HS-15 + 90% normal saline.
Intragastric administration group: The administration dose was 10 mg/kg, and the administration volume was 10 mL/kg.
Intravenous administration group: The administration dose was 1 mg/kg, and the administration volume was 5 mL/kg.
Intragastric administration: Blood was collected from mice before administration (0 h) and after administration at 0, 0.25 h, 0.5 h, 1 h, 2 h, 4 h, 6 h, 8 h, 10 h, and 24 h. Intravenous injection: Blood was collected before administration (0 h) and after administration at 5, 15, 30 min, 1, 2, 4, 6, 8, and 24 h.
Blood, approximately 0.1 mL, was collected by retro-orbital puncture and placed into EDTA-K2 anticoagulant tubes with labels. After blood collection, the tubes were gently and completely inverted three times to mix with the anticoagulant. The samples were then immediately placed in an ice-water bath and centrifuged at 4500 rpm for 10 min at 4°C. After centrifugation, the plasma was promptly aliquoted into EP tubes with corresponding labels and stored in a -80°C freezer.
After administration, 20 µL of mouse plasma was taken and placed into a 96-deep-well plate pre-filled with 20 µL of internal standard working solution. Methanol (400 µL) as the precipitating agent was added, vortexed for 10 min, and centrifuged at 4000 rpm for 15 min. A supernatant of 200 µL was transferred into another 96-deep-well plate pre-filled with 200 µL of ultrapure water, vortexed for 5 min, and centrifuged at 4000 rpm for 3 min. A supernatant of 5 µL was taken for LC-MS/MS analysis of plasma drug concentration.
The main pharmacokinetic parameters were calculated by WinNonlin 7.0, and the pharmacokinetic experimental results of mice are shown in Table 5 below. Table 5: Pharmacokinetic experimental results of mice

Setting [1] is: male, KM, mouse, in vivo, iv, 1 mg/kg.
Setting [2] is: male, KM, mouse, in vivo, po, 10 mg/kg.

Read-outs that look alike come from different tables or passages of the source.

For `C[C@H]1[C@@H](c2ccc(F)c(F)c2OC2COC2)[C@H](C(=O)Nc2ccc(F)c(C(=N)NO)c2)O[C@@]1(C)C(F)(F)F` [Example 11], the “Peak concentration Cmax/C0” value came out at 3413.33 ng/mL (KM mice, i.g. 10 mg/kg) and 612.43 ng/mL (KM mice, i.v. 1 mg/kg). The Vd (mouse, in vivo, iv, KM mice, i.v. 1 mg/kg, read-out: Apparent distribution Vss) amounted to 1.4 L/kg. In addition, the AUC(0-t) reads like this: (mouse, in vivo, iv, KM mice, i.v. 1 mg/kg, read-out: Area under the curve AUC0-t) 1060 ng·h/mL; (mouse, in vivo, po, KM mice, i.g. 10 mg/kg, read-out: Area under the curve AUC0-t) 7540 ng·h/mL. Moreover, the half-life (mouse, in vivo, iv, KM mice, i.v. 1 mg/kg, read-out: Half-life t1/2 (converted)) was 1.44 h and the half-life (mouse, in vivo, po, KM mice, i.g. 10 mg/kg, read-out: Half-life t1/2 (converted)) is 1.37 h. Moreover, the bioavailability (mouse, in vivo, po, KM mice, i.g. 10 mg/kg vs i.v. 1 mg/kg, read-out: Bioavailability) stood at 71.4%. Besides, under “mouse, in vivo, po, KM mice, i.g. 10 mg/kg, read-out: Time to peak Tmax”, the Tmax worked out at 0.25 h.
Where the note is “male, KM, mouse, in vivo”, `COc1c([C@H]2[C@H](C(=O)Nc3ccnc(C(N)=O)c3)O[C@@](C)(C(F)(F)F)[C@H]2C)ccc(F)c1F` [Reference compound, reference compound] came in with a bioavailability of 44.2%. For the same compound, under setting [1], the AUC(0-t) came to 1020 ng·h/mL, the “Clearance CL/F” value worked out at 15.222 mL/min/kg, the highest level (Cmax) was 621 ng/mL and the Vd amounted to 2.48 L/kg. The same compound showed a half-life under setting [1] of 1.99 h. In addition, under setting [2], the AUC(0-t) worked out at 4530 ng·h/mL, the Cmax is 1330 ng/mL, the Tmax was found to be 1 h and the half-life was 1.97 h.

A word on the bioavailability: it is dose-corrected exposure relative to a reference, in per cent. What is called Tmax is the time at which the peak concentration occurs. In general, Cmax refers to the highest concentration seen after dosing.
